Molecular target: T1, PPARα (Homo sapiens, UniProt Q07869)
T1 construct: gene PPARA
T1 sequence (Q07869 1-468): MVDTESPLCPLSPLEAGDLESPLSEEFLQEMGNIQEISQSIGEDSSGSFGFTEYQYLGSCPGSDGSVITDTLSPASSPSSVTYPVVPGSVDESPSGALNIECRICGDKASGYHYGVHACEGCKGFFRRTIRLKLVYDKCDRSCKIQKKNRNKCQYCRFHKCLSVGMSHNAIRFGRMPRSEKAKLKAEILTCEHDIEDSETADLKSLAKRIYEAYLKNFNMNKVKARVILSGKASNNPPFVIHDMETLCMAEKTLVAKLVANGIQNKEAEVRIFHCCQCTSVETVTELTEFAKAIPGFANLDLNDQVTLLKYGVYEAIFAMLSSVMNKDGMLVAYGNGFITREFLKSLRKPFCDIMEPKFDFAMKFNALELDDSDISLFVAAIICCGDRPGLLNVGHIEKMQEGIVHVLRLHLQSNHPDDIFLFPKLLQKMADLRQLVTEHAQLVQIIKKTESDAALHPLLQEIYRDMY
Experiment: SPR (OpenSPR) with recombinant human PPARα immobilized by amine coupling
Type: binding

## CCCCC(CC)COC(=O)c1ccccc1C(=O)O (stereo not shown) [MEHP, mono(2-ethylhexyl) phthalate]
  Kd: 627 µM

Source: article PMC8754100, “Role of Hepatocyte- and Macrophage-Specific PPARγ in Hepatotoxicity Induced by Diethylhexyl Phthalate in Mice” (Environmental Health Perspectives, 2022)
